The source of these data is PubChem BioAssay AID504657 (Sanford-Burnham Center for Chemical Genomics, 2011).

The source made the active and inactive calls. How the calls were made is not given here.

This assay concerns S. cerevisiae tim10-1 mutant, luminescence counterscreen. The assay is described as follows: inhibitors in tim10-1 mutant yeast luminescence, dose response, counter-screen for tim23-1 inhibitor project, S. cerevisiae, uHTS hits (AID 504657). Background: The purpose of a counterscreen is to sort out artefacts and off-target activity.
As to `Cc1ccc(-c2nn(-c3ccccc3)cc2NC(=O)CCl)cc1`, the IC50 was > 100 µM (inactive).
Regarding `COc1ccc2c(c1)sc1nc(-c3ccccc3)cn12`, the IC50 is > 100 µM (inactive).
In the case of `O=c1oc(Cl)c(Cl)c2ccccc12` it was > 100 µM (inactive); in that of `CO/C(N)=C(\C#N)N=Cc1ccccc1Cl`, > 100 µM (inactive); in that of `COc1ccc(C(=O)N/N=C\c2coc3ccc(Cl)cc3c2=O)cc1`, > 100 µM (inactive).
Consider `O=C(/C=C/c1ccccc1Cl)Nc1ccccc1`, for which the IC50 is > 100 µM (inactive).
The same measure for `Cc1nc2scc(C)n2c(=O)c1S(=O)(=O)Nc1ccc(N2CCOCC2)cc1`: > 100 µM (inactive); for `COc1ccc(/C=C/C(=O)Nc2ccc3c(c2)CCC3)cc1OC`: > 100 µM (inactive); for `O=C(N/N=C/c1coc2ccc(Cl)cc2c1=O)c1cc(O)cc(O)c1`: > 100 µM (inactive).
`Cc1ccc2[nH]cc(C(=O)CCl)c2c1`: the IC50 is > 100 µM (inactive).
As for `N#C/C(=C/c1ccc(N2CCOCC2)o1)c1nc2ccccc2[nH]1`, the IC50 is > 100 µM (inactive).
The same measure for `CCCCn1c(N)c(N(CCC(C)C)C(=O)c2ccc3c(c2)OCO3)c(=O)[nH]c1=O`: > 100 µM (inactive); for `O=C(Nc1nc2ccccc2s1)C1CCCN1S(=O)(=O)c1ccc(Cl)cc1` (stereo not given): > 100 µM (inactive); for `CN(C)/C=C1/C=C(c2ccccc2)OC1=O`: 94.1 µM.
In the case of `O=C(Nc1cc(-c2ccccc2)[nH]n1)c1ccccc1` it was > 100 µM (inactive); in that of `Cc1cc2cc(CNC(=O)c3ccc(C)c([N+](=O)[O-])c3)ccc2[nH]1`, > 100 µM (inactive); in that of `Cc1cc(C)nc(SCC(=O)c2cc3ccccc3oc2=O)n1`, > 100 µM (inactive).
In the case of `Cc1nc2ccc(C(C(F)(F)F)(C(F)(F)F)C(F)(F)F)cc2[nH]1` it was > 100 µM (inactive); in that of `Cc1ccc2nc(N3C(=O)CNC3=S)sc2c1`, > 100 µM (inactive); in that of `COc1cc2c(cc1OC)/C(=C/c1ccc(Cl)cc1)C(=O)OC2`, > 100 µM (inactive).
Consider `O=c1c(O)c(-c2ccccc2)oc2cc(O)cc(O)c12`, for which the IC50 was > 100 µM (inactive).
In the case of `CCOC(=O)c1cccnc1SCc1cc(=O)n2ccccc2n1` it was > 100 µM (inactive); in that of `O=C(Nc1ccc(-c2cn3c(n2)SCC3)cc1)c1ccco1`, > 100 µM (inactive); in that of `CC(C)Cn1cnc2c(c(-c3ccccc3)c(-c3ccccc3)n2Cc2ccco2)c1=N`, > 100 µM (inactive).
As for `O=C(CSc1cccc[n+]1[O-])Nc1ccccc1Oc1ccccc1`, the IC50 was > 100 µM (inactive).
The same measure for `Cc1nc2scc(C)n2c(=O)c1S(=O)(=O)Nc1ccc(OC(F)(F)F)cc1`: > 100 µM (inactive).
Consider `CCCN(C(=O)c1ccc([N+](=O)[O-])c(C)c1)c1c(N)n(Cc2ccccc2)c(=O)[nH]c1=O`, for which the IC50 is > 100 µM (inactive).
In the case of `O=C1OC(c2ccccc2)=N/C1=C\C=C\c1ccco1` it was > 100 µM (inactive); in that of `O=C(Nc1ccc2nc(-c3ccc(Br)o3)[nH]c2c1)c1cccs1`, > 100 µM (inactive).
In the case of `C=C1CCc2c([nH]c3ccc(OCC(C)C)cc23)C1=O` it was > 100 µM (inactive).
In the case of `Oc1ccccc1C1NN=C(c2ccccc2)S1` (stereo not given) it was > 100 µM (inactive).
Regarding `Cc1ccc(Nc2nc(-c3cccnc3)nc3ccccc23)cc1`, the IC50 is > 100 µM (inactive).
In the case of `N#C/C(=C\c1ccc(Cl)cc1)C(=O)Nc1cccnc1` it was > 100 µM (inactive); in that of `N#Cc1c(-c2ccccc2)cc(-c2ccc(O)cc2)nc1N`, > 100 µM (inactive); in that of `CCn1c(N2CCN(S(=O)(=O)c3ccc(OC)cc3)CC2)nc2ccccc21`, > 100 µM (inactive).
In the case of `O=c1cc(C(Cl)(Cl)Cl)oc2c1ccc1ccccc12` it was > 100 µM (inactive); in that of `CN1CCc2nc3sc(C(=O)C45CC6CC(CC(C6)C4)C5)c(N)c3cc2C1`, > 100 µM (inactive); in that of `CSc1nnc(C(C)(C)C)c(=O)n1/N=C/c1ccccc1`, > 100 µM (inactive).
The same measure for `CCN(CC)S(=O)(=O)c1ccc(C(=O)OCn2nnc3ccccc3c2=O)cc1`: > 100 µM (inactive); for `CC(C)(C)c1csc(NC(=O)c2ccc(Cl)s2)n1`: > 100 µM (inactive); for `O=C(N/N=C/c1coc2ccc(Cl)cc2c1=O)c1ccncc1`: > 100 µM (inactive).
As to `Cc1ccc(CS(=O)(=O)c2ncc(Cl)c(C(=O)Nc3ccc(OC(F)F)cc3)n2)cc1`, the IC50 was > 100 µM (inactive).
In the case of `C(=C\c1ccccc1)/C=N/Nc1nc2ccccc2[nH]1` it was > 100 µM (inactive); in that of `O=C(N/N=C/C=C\c1ccco1)c1cccs1`, > 100 µM (inactive); in that of `Oc1ccc(Oc2ccc(Oc3ccc(O)cc3)cc2)cc1`, > 100 µM (inactive).
For the molecule `O=C(Nc1ccc(-c2cn3ccccc3n2)cc1)c1cccs1`, the IC50 was > 100 µM (inactive).
The same measure for `CCOC(=O)c1sc(=NC(=O)c2ccco2)n(C)c1C`: > 100 µM (inactive).
In the case of `CCOC(=O)c1ccc(NC(=O)CSc2nc(=O)n3cccc(C)c3n2)cc1` it was > 100 µM (inactive); in that of `O=C(N/N=C/C(Cl)=C\c1ccccc1)c1cccs1`, > 100 µM (inactive).
For `CC(C)OC(=O)c1cccnc1SCc1cc(=O)n2ccccc2n1`, the IC50 was > 100 µM (inactive).

As usually defined, the IC50 is the concentration that inhibits the measured activity by half.
